According to patent US7807713B2, “Pan-antagonists for the androgen receptor and androgen associated with anti-androgen withdrawal” (University of Delaware, priority 2006, dated 2010):
Positions count from the first letter of the chain named. Like-named read-outs stand apart in the source and are kept apart here.

Legend:
Type in all cases: cell-based
hAR(W741C) = biological target: T1, hAR(W741C) (Homo sapiens, UniProt P10275, W742C); assay: Transcription assay (ARE-luciferase reporter, CV-1 cells), mutant androgen receptor W741C
T1 construct: expressed in transfected cells; host or cells: CV-1
T1 sequence (P10275 1-920 W742C): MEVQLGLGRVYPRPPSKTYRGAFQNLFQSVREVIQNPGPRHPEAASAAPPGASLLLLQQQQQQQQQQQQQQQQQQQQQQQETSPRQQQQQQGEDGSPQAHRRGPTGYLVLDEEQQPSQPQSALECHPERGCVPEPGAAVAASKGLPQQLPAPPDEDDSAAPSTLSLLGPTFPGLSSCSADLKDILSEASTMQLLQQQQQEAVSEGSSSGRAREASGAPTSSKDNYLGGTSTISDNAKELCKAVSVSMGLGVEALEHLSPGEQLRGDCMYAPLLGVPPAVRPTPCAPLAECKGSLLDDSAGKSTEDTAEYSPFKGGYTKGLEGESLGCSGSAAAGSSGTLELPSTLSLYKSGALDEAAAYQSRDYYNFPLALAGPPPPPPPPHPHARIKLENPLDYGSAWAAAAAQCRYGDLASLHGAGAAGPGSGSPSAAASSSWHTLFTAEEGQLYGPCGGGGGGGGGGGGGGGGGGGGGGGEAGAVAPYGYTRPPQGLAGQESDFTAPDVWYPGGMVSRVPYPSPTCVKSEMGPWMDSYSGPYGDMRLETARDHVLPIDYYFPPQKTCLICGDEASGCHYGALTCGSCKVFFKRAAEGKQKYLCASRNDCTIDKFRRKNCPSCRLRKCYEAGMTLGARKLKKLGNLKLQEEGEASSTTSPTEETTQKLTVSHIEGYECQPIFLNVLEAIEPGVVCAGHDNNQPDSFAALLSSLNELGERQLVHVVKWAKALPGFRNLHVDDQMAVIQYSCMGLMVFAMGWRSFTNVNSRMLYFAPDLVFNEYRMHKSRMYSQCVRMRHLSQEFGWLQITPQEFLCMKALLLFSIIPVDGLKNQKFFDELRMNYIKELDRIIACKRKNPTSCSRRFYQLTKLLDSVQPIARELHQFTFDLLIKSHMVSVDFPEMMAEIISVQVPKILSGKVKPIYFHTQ
Experimental: (§1) Twenty-four hours prior to transfection, CV-1 cells were seeded at a density of 45,000 cells per well in 24-well cell culture plates and grown in phenol red free Dulbecco's Modified Eagle Medium (DMEM) supplemented with 10% cosmic calf serum (CCS). ARE-luciferase reporter and Renilla-Luc as the internal standard and a […] expression vector encoding the wild-type androgen receptor or mutant androgen receptor were transfected with Lipofectamine (Invitrogen) following manufacturer's protocol. Five hours after transfection, media was added containing the appropriate concentrations of ligands. The cells were allowed to incubate for 38 hours before harvesting by passive lysis buffer. Cell extracts were immediately assayed using the Dual Luciferase Assay (Promega).

hAR(T877A) = biological target: T2, hAR(T877A) (Homo sapiens, UniProt P10275, T878A); assay: Transcription assay (ARE-luciferase reporter, CV-1 cells), mutant androgen receptor T877A
T2 construct: expressed in transfected cells; host or cells: CV-1
T2 sequence (P10275 1-920 T878A): T1 sequence (P10275 1-920 W742C) with C742W, T878A
Experimental: as §1

hAR(wt) = biological target: T3, hAR(wt) (Homo sapiens, UniProt P10275); assay: Transcription assay (ARE-luciferase reporter, CV-1 cells), wild-type androgen receptor
T3 construct: expressed in transfected cells; host or cells: CV-1
T3 sequence (P10275 1-920): T1 sequence (P10275 1-920 W742C) with C742W
Experimental: as §1

LNCaP cells = assay: Cell proliferation assay (CyQuant), R1881 induced; conditions: 8 day ligand treatment ± R1881, FIG. 9
Text: FIG. 9. LNCaP cell proliferation (CyQuant) after 8 day ligand treatment±R1881. Relative Fluorescence±SEM. (R1881±ligand; P<0.05, one-way ANOVA).
Further evidence that formulae such as PLM1 can act to limit androgen dependent proliferation of prostate cells was obtained by cell proliferation assays as determined using CyQuant® assays, according to manufacturer's instructions (invitrogen).

CC(O)(CS(=O)(=O)c1cccc(Cc2ccccc2)c1)C(=O)Nc1ccc(C#N)c(C(F)(F)F)c1 (stereo not drawn) [PLM3, 3-(3-benzylphenylsulfonyl)-N-(4-cyano-3-(trifluoromethyl)phenyl)-2-hydroxy-2-methylpropanamide]
EC50 (hAR(W741C)): 630 ± 67 nM

3-(2-phenylphenylsulfonyl)-N-(4-cyano-3-(trifluoromethyl)phenyl)-2-hydroxy-2-methylpropanamide [PLM4]
EC50 (hAR(W741C); half maximal activation of reporter gene expression (agonism), '—' = no effect, read-out: hAR(W741C) EC50): 33 ± 9.8 nM

CC(O)(CS(=O)(=O)c1ccc(Br)c2ccccc12)C(=O)Nc1ccc(C#N)c(C(F)(F)F)c1 (stereo not drawn) [PLM9, 3-(1-bromonaphthalen-4-ylsulfonyl)-N-(4-cyano-3-(trifluoromethyl)phenyl)-2-hydroxy-2-methylpropanamide]
EC50 (hAR(T877A)): 426 ± 72 nM

CC(O)(CS(=O)(=O)c1ccccc1Cc1ccccc1O)C(=O)Nc1ccc(C#N)c(C(F)(F)F)c1 (stereo not drawn) [PAN11, N-(4-cyano-3-(trifluoromethyl)phenyl)-2-hydroxy-3-(2-(2-hydroxybenzyl)phenylsulfonyl)-2-methylpropanamide]
EC50 (hAR(T877A)): 1.9 nM

CC(O)(CS(=O)(=O)c1ccccc1Cc1cccc(O)c1)C(=O)Nc1ccc(C#N)c(C(F)(F)F)c1 (stereo not drawn) [PAN21, N-(4-cyano-3-(trifluoromethyl)phenyl)-2-hydroxy-3-(2-(3-hydroxybenzyl)phenylsulfonyl)-2-methylpropanamide]
EC50 (hAR(wt)): 1.8 nM

CC(O)(CS(=O)(=O)c1cccc2ccccc12)C(=O)Nc1ccc(C#N)c(C(F)(F)F)c1 (stereo not drawn) [PLM1, N-(4-cyano-3-(trifluoromethyl)phenyl)-2-hydroxy-2-methyl-3-(naphthalen-1-ylsulfonyl)propanamide]
inhibiting androgen (R1881) induced proliferation of LNCaP cells (LNCaP cells): at least as potent as biclutamide itself
